Test: mn = molality of the nth substance listed, in mol/kg
Conditions: 298.15 K, 102 kPa, Liquid, Vibrating tube method

CCCCCCCCCCCCn1cc[n+](C)c1.[Br-] [1-dodecyl-3-methylimidazolium bromide] + O
Conditions | mass density [kg/m3]
m1 = 0.00525 | 997.226
m1 = 0.00574 | 997.243
m1 = 0.00615 | 997.258
m1 = 0.007 | 997.288
m1 = 0.00733 | 997.299
m1 = 0.00816 | 997.329
m1 = 0.00869 | 997.347
m1 = 0.0092 | 997.365
m1 = 0.01006 | 997.396
m1 = 0.01063 | 997.412
m1 = 0.01124 | 997.43
m1 = 0.01196 | 997.451
m1 = 0.01274 | 997.474
m1 = 0.01356 | 997.498
m1 = 0.01464 | 997.529
m1 = 0.01526 | 997.545
m1 = 0.01629 | 997.575
m1 = 0.01707 | 997.595

CCCCCCCCCCCC[N+](C)(C)CC[N+](C)(C)CCCCCCCCCCCC.[Br-].[Br-] [1,2-bis(dimethyldodecylammonium)ethane dibromide] + O
Conditions | mass density [kg/m3]
m1 = 0.0005 | 997.078
m1 = 0.00056 | 997.083
m1 = 0.00065 | 997.091
m1 = 0.0007 | 997.095
m1 = 0.00079 | 997.103
m1 = 0.00089 | 997.112
m1 = 0.00095 | 997.117
m1 = 0.00104 | 997.124
m1 = 0.00107 | 997.126
m1 = 0.00119 | 997.136
m1 = 0.0013 | 997.144
m1 = 0.00142 | 997.153
m1 = 0.00168 | 997.172

Reference: the NIST ThermoML archive (doi:10.1016/j.jct.2014.12.006)
